Entries after “also recorded” stand apart in the source; their conditions may differ.
How the values were obtained:
[1] = system: mouse model with ear AD-like symptoms induced by calcipotriol (MC903); assay: Mouse model with ear AD-like symptoms induced by calcipotriol (MC903), first batch of experiments (Embodiment 32); format: in vivo, BALB/c mouse; conditions: MC903 6.9 nmol/mouse every day; for reducing the total serum IgE levels of the mice / reducing ear thicknesses of the mice: both ears, 11 consecutive days, vs model control group (MC903+EtOH), Mann-Whitney test
Experimental: (§1) A mouse model with ear AD-like symptoms induced by calcipotriol (MC903) was used to investigate these compounds in terms of the treatment activity for AD.
(§2) Referring to the Patent with a publication number of CN 110368386 A, a mouse model induced by MC903 (Calcipotriene) was prepared, wherein both ears of the BALB/c mouse model were applied with MC903, MC903+indole-3-aldehyde (IAId), or MC903+the compound prepared from the embodiments for 11 consecutive days, respectively, and total serum IgE levels, ear thicknesses, and weight loss in relative to the weight at the beginning of the experiment were tested at the end of the experiment.
(§3) The data shown in the results were average values ±SD of five independently repeated trials. Significance analysis was performed using Mann-Whitney test on the differences of corresponding parameters of the mice with the treatment group (MC903+ethanol (EtOH)), which was only administrated with MC903, wherein * indicated P<0.05, ** indicated P<0.01; *** indicated P<0.001.
In this batch of experiments, the dosage of MC903, a drug for constructing the models, was 6.9 nmol/mouse every day, and the experimental results of Compounds 1, 2, 3, 6, 7, 19, 20, 28, 29, 30, 34, 37, 38, and 39 in this batch were shown in FIGS. 11 to 13.
(§4) EtOH group was a Blank control group, which was only administrated with ethanol. MC903+ EtOH group was a model control group, which was administrated with Calcipotriene and ethanol. The remaining groups were the groups which were administered with MC903 to construct the model, and then administrated with different drugs. Indole-3-aldehyde (IAId) group was the group administered with IAId, indole-3-methanol (I3C) group was the group administered with I3C. The other compound groups were the groups administered with corresponding compounds.

[2] = system: mouse model with ear AD-like symptoms induced by calcipotriol (MC903); assay: Mouse model with ear AD-like symptoms induced by calcipotriol (MC903), second batch of experiments (Embodiment 32); format: in vivo, BALB/c mouse; conditions: MC903 5 nmol/mouse every day, 9 days; for reducing the total serum IgE levels of the mice / reducing ear thicknesses of the mice: vs model control group (MC903+EtOH), Mann-Whitney test; for therapeutic effects on AD-like symptoms in the ear of mice (ear inflammation, tissue HE staining, parameters of multiple experiments): screening over both batches
Experimental: as §1, §2, §3
Therefore, in the second batch of drug tests, the dosage of MC903 was decreased to 5 nmol/mouse every day, and the test period was reduced to 9 days.
as §4, with “then administered” for “then administrated”, “with IAId. Indole-3-methanol” for “with IAId, indole-3-methanol”

[3] = system: mouse model with ear AD-like symptoms induced by calcipotriol (MC903); assay: Optimum effective concentration in treatment of AD-like symptoms, MC903 mouse model (Embodiment 33); format: in vivo; conditions: vs group only administrated with MC903; for inhibitory effect on systematic inflammation (lower total serum IgE levels and improvement on AD-like symptoms in the mice ear): dosages per Table 11
Experimental: The above screened compounds having therapeutic effect on AD-like symptoms were selected to further determine the optimum effective concentration.
Referring to the animal model method in the Embodiment 32, dosages of drugs for each group were determined according to the table below, and the optimal effective concentration in treatment of AD-like symptoms was explored by comparing the differences in ear thicknesses, the total serum IgE levels and the weight loss of the mice with those of the treatment group only administrated with MC903.

Row | Compound | reducing the total serum IgE levels of the mice [1] | reducing ear thicknesses of the mice [1] | reducing the total serum IgE levels of the mice [2] | also measured
1 | CCCCCCCC(=O)OCOC(=O)n1cc(C=O)c2ccccc21 [Compound 2, (octanoyloxy)methyl 3-formyl-1H-indole-1-carboxylate] | statistically significant difference | – | – | –
2 | CCCCCCCCCC(=O)OCn1cc(CO)c2ccccc21 [Compound 39, (3-(hydroxymethyl)-1H-indol-1-yl)methyl decanoate] | statistically significant difference | statistically significant difference | – | –
3 | CCCCCCCCCCCCCC(=O)OCn1cc(CO)c2ccccc21 [Compound 41, (3-(hydroxymethyl)-1H-indol-1-yl)methyl tetradecanoate] | – | – | statistically significant difference | –
4 | O=Cc1cn(C(=O)OCOC(=O)Cc2ccccc2Nc2c(Cl)cccc2Cl)c2ccccc12 [Compound 9, (2-(2-((2,6-dichlorophenyl)amino)phenyl)acetoxy)methyl 3-formyl-1H-indole-1-carboxylate] | – | – | statistically significant difference; also recorded: excellent effects | therapeutic effects on AD-like symptoms in the ear of mice (ear inflammation, tissue HE staining, parameters of multiple experiments) [2]: therapeutic effects; reducing ear thicknesses of the mice [2]: statistically significant difference; also recorded: excellent effects; therapeutic effect on AD-like symptoms in the mouse ear ([3]; at different concentration): significant therapeutic effect; inhibitory effect on systematic inflammation (lower total serum IgE levels and improvement on AD-like symptoms in the mice ear) [3]: good inhibitory effect
5 | CCCCCCCCCCCCCCCC(=O)OCOC(=O)n1cc(CO)c2ccccc21 [Compound 24, (palmitoyloxy)methyl 3-(hydroxymethyl)-1H-indole-1-carboxylate] | – | – | statistically significant difference | –
6 | CCCCCCCCCCCCCCCC(=O)OCn1cc(C=O)c2ccccc21 [Compound 33, (3-formyl-1H-indol-1-yl)methyl palmitate] | – | – | statistically significant difference | –
7 | O=Cc1c[nH]c2ccccc12 [IAId, indole-3-carboxaldehyde, reference compound] | significantly reduced | significantly reduced | – | –
8 | O=C(Cc1ccccc1Nc1c(Cl)cccc1Cl)OCOC(=O)n1cc(CO)c2ccccc21 [Compound 27, (2-(2-((2,6-dichlorophenyl)amino)phenyl)acetoxy)methyl 3-(hydroxymethyl)-1H-indole-1-carboxylate] | – | – | statistically significant difference | reducing ear thicknesses of the mice [2]: statistically significant difference
9 | COCCOCCOCCOCCOCC(=O)OCn1cc(C=O)c2ccccc21 [Compound 34, (3-formyl-1H-indol-1-yl)methyl 2,5,8,11,14-pentaoxahexadecan-16-oate] | statistically significant difference | statistically significant difference | – | –
10 | CCCCCCCCCCCC(=O)OCOC(=O)n1cc(C=O)c2ccccc21 [Compound 4, (dodecanoyloxy)methyl 3-formyl-1H-indole-1-carboxylate] | – | – | statistically significant difference; also recorded: excellent effects | therapeutic effects on AD-like symptoms in the ear of mice (ear inflammation, tissue HE staining, parameters of multiple experiments) [2]: therapeutic effects; reducing ear thicknesses of the mice [2]: statistically significant difference; inhibitory effect on systematic inflammation (lower total serum IgE levels and improvement on AD-like symptoms in the mice ear) [3]: good inhibitory effect; also recorded: excellent inhibitory effect
11 | CCCCCCCCCC(=O)OCn1cc(C=O)c2ccccc21 [Compound 30, (3-formyl-1H-indol-1-yl)methyl decanoate] | statistically significant difference; also recorded: excellent effects | statistically significant difference; also recorded: excellent effects | statistically significant difference; also recorded: excellent effects | therapeutic effects on AD-like symptoms in the ear of mice (combined with ear inflammation and tissue HE staining) ([1]; 11 days): significant therapeutic effects; therapeutic effects on AD-like symptoms in the ear of mice (ear inflammation, tissue HE staining, parameters of multiple experiments) [2]: therapeutic effects; reducing ear thicknesses of the mice [2]: statistically significant difference; inhibitory effect on systematic inflammation (lower total serum IgE levels and improvement on AD-like symptoms in the mice ear) [3]: good inhibitory effect; also recorded: excellent inhibitory effect
12 | CCCCCCCCCCCCCC(=O)OCOC(=O)n1cc(CO)c2ccccc21 [Compound 23, (tetradecanoyloxy)methyl 3-(hydroxymethyl)-1H-indole-1-carboxylate] | – | – | statistically significant difference | –
13 | CCCCCC(=O)OCn1cc(CO)c2ccccc21 [Compound 37, (3-(hydroxymethyl)-1H-indol-1-yl)methyl hexanoate] | statistically significant difference | – | – | –
14 | CC(=O)Oc1ccccc1C(=O)OCn1cc(C=O)c2ccccc21 [Compound 35, (3-formyl-1H-indol-1-yl)methyl 2-acetoxybenzoate] | – | – | statistically significant difference; also recorded: excellent effects | therapeutic effects on AD-like symptoms in the ear of mice (ear inflammation, tissue HE staining, parameters of multiple experiments) [2]: therapeutic effects; inhibitory effect on systematic inflammation (lower total serum IgE levels and improvement on AD-like symptoms in the mice ear) [3]: good inhibitory effect
15 | CCCCCC(=O)OCOC(=O)n1cc(CO)c2ccccc21 [Compound 19, (hexanoyloxy)methyl 3-(hydroxymethyl)-1H-indole-1-carboxylate] | – | statistically significant difference | – | –
16 | CCCCCC(=O)OCOC(=O)n1cc(C=O)c2ccccc21 [Compound 1, (hexanoyloxy)methyl 3-formyl-1H-indole-1-carboxylate] | statistically significant difference | statistically significant difference | – | –
17 | OCc1c[nH]c2ccccc12 [Compound I3C, indole-3-methanol, reference compound] | significantly reduced | significantly reduced | – | –
18 | CCCCCCCCCCCC(=O)OCOC(=O)n1cc(CO)c2ccccc21 [Compound 22, (dodecanoyloxy)methyl 3-(hydroxymethyl)-1H-indole-1-carboxylate] | – | – | statistically significant difference; also recorded: excellent effects | therapeutic effects on AD-like symptoms in the ear of mice (ear inflammation, tissue HE staining, parameters of multiple experiments) [2]: therapeutic effects; inhibitory effect on systematic inflammation (lower total serum IgE levels and improvement on AD-like symptoms in the mice ear) [3]: good inhibitory effect
19 | CCCCCCCC(=O)OCOC(=O)n1cc(CO)c2ccccc21 [Compound 20, (octanoyloxy)methyl 3-(hydroxymethyl)-1H-indole-1-carboxylate] | – | statistically significant difference | – | –
20 | CC(=O)Oc1ccccc1C(=O)OCOC(=O)n1cc(CO)c2ccccc21 [Compound 26, ((2-acetoxybenzoyl)oxy)methyl 3-(hydroxymethyl)-1H-indole-1-carboxylate] | – | – | statistically significant difference | –
21 | CC(=O)Oc1ccccc1C(=O)OCOC(=O)n1cc(C=O)c2ccccc21 [Compound 8, ((2-acetoxybenzoyl)oxy)methyl 3-formyl-1H-indole-1-carboxylate] | – | – | statistically significant difference | reducing ear thicknesses of the mice [2]: statistically significant difference

From US12570605B2, “Indole compounds, and preparation methods, and uses thereof” (Shenzhen 01 Life Science and Technology Co., Ltd., priority 2021, dated 2026)
